Source: ChEMBL document CHEMBL5236603, “Discovery of mobocertinib, a potent, oral inhibitor of EGFR exon 20 insertion mutations in non-small cell lung cancer” (Bioorg Med Chem Lett, 2023)

What was measured:
[1] = biological target: T1, Epidermal growth factor receptor (Homo sapiens, UniProt P00533); test: Inhibition of […]-induced wild type EGFR phosphorylation in human A-431 cells pretreated for 2 hrs followed by EGF stimulation by immune assay; assay type: cell-based
[2] = Inhibition of mouse EGFR D770_N771insNPG mutant stably expressed in mouse BaF3 cells assessed as cell viability incubated for 3 days by Cell Titer-Glo assay; assay type: cell-based; settings: BaF3, 72 h
[3] = biological target: T2, Tyrosine-protein kinase JAK3 (Homo sapiens) (UniProt P52333); test: Inhibition of human JAK3 at 1 uM by hotspot assay relative to control
T2 sequence (whole entry): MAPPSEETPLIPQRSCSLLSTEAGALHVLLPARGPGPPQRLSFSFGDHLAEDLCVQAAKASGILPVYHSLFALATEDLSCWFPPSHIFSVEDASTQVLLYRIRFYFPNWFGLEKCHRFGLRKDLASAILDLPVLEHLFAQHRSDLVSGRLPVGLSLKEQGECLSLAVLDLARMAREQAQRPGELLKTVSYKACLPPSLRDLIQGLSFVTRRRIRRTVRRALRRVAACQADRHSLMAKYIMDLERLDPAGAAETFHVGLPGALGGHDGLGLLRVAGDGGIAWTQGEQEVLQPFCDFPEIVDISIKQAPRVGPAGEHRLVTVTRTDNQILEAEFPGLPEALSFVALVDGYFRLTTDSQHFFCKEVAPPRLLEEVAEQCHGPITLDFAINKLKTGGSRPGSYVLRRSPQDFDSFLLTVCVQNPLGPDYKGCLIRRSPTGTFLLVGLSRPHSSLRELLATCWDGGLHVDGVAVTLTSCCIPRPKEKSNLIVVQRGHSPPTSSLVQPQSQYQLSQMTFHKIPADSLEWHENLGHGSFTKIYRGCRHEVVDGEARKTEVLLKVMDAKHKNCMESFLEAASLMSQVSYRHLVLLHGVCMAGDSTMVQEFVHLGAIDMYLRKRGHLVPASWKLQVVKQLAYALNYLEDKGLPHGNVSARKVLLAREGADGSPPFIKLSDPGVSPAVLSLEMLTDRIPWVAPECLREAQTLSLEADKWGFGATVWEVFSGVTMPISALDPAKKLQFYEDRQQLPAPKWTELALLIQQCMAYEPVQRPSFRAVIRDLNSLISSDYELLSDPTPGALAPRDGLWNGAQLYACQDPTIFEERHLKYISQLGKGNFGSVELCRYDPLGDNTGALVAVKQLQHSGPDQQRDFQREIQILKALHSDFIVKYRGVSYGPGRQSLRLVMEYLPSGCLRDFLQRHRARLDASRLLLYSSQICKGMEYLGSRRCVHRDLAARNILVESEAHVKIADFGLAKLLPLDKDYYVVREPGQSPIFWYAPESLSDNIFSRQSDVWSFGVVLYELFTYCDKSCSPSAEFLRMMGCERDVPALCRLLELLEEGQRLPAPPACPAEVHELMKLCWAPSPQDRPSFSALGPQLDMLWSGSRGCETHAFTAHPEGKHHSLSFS

[4] = tested on: Tyrosine-protein kinase BTK (Homo sapiens), Q06187 [E41K]; test: Inhibition of human BTK E41K mutant at 1 uM by hotspot assay relative to control
Sequence of Tyrosine-protein kinase BTK (Homo sapiens), Q06187 [E41K] (Q06187 whole entry E41K): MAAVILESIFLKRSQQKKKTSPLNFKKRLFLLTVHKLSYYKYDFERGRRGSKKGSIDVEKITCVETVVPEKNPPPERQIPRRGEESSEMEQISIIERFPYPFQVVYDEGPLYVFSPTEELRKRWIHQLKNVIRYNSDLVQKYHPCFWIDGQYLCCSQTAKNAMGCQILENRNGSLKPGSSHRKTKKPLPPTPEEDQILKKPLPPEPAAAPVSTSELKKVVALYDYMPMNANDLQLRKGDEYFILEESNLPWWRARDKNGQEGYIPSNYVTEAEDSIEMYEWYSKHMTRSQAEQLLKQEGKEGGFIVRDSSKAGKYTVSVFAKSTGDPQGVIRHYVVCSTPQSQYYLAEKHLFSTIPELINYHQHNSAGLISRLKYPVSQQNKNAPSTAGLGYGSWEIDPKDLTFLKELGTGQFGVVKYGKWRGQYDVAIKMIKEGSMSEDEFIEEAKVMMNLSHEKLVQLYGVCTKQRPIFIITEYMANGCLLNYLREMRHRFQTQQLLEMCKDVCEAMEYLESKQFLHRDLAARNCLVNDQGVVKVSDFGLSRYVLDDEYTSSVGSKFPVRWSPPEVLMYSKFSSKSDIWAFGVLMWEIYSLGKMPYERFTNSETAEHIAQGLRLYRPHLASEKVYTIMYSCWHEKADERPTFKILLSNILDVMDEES

[5] = biological target: T3, Tyrosine-protein kinase TXK (Homo sapiens) (UniProt P42681); test: Inhibition of human TXK at 1 uM by hotspot assay relative to control
T3 sequence (whole entry): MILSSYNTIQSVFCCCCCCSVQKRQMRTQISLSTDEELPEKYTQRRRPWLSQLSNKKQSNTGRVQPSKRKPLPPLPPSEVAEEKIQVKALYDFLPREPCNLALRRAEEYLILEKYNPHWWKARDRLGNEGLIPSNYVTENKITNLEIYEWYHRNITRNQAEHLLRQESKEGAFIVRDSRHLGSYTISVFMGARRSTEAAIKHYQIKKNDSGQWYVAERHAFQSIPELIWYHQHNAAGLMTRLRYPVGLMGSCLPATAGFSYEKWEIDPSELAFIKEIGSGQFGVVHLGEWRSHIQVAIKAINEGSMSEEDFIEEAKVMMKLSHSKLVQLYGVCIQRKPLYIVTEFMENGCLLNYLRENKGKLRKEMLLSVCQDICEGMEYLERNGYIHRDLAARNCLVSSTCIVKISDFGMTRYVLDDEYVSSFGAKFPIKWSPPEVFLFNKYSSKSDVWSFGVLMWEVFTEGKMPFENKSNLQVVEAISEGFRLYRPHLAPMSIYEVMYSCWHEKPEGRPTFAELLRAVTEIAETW

[6] = Cmax in CD-1 rat at 10 mg/kg, po by LC/MS/MS analysis; assay type: ADME, organism-based; set-up: dose 10 mg/kg, route po; settings: in vivo
[7] = Cmax in CD-1 mouse at 10 mg/kg, po by LC/MS/MS analysis; assay type: ADME, organism-based; set-up: dose 10 mg/kg, route po; settings: in vivo
BaF3 [8] = test: In vivo antitumor activity against mouse BaF3 cells expressing EGFR exon 20 insertion (ex20ins) ASV implanted in SCID mouse assessed as tumor regression at 100 mg/kg, po administered for 7 consecutive days; assay type: functional; settings: time 7 day
[9] = biological target: Tyrosine-protein kinase Blk (Homo sapiens) (UniProt P51451); test: Inhibition of human BLK at 1 uM by hotspot assay relative to control
Sequence of Tyrosine-protein kinase Blk (Homo sapiens) (P51451 2-505 limits assumed): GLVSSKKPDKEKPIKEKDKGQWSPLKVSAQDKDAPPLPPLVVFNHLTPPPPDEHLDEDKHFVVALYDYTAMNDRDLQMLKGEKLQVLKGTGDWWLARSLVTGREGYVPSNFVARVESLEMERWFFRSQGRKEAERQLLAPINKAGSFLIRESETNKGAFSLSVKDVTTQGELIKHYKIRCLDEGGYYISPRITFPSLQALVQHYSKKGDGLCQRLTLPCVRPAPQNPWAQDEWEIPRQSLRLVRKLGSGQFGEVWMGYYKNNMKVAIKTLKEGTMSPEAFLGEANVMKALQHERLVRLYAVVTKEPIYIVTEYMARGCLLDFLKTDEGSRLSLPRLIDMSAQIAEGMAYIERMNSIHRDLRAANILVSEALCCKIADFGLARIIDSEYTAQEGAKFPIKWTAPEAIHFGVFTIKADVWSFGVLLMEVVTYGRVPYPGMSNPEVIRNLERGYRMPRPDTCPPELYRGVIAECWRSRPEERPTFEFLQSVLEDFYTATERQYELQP

[10] = biological target: Receptor tyrosine-protein kinase erbB-2 (Homo sapiens) (UniProt P04626); test: Inhibition of human HER2 at 1 uM by hotspot assay relative to control
Sequence of Receptor tyrosine-protein kinase erbB-2 (Homo sapiens) (P04626 whole entry): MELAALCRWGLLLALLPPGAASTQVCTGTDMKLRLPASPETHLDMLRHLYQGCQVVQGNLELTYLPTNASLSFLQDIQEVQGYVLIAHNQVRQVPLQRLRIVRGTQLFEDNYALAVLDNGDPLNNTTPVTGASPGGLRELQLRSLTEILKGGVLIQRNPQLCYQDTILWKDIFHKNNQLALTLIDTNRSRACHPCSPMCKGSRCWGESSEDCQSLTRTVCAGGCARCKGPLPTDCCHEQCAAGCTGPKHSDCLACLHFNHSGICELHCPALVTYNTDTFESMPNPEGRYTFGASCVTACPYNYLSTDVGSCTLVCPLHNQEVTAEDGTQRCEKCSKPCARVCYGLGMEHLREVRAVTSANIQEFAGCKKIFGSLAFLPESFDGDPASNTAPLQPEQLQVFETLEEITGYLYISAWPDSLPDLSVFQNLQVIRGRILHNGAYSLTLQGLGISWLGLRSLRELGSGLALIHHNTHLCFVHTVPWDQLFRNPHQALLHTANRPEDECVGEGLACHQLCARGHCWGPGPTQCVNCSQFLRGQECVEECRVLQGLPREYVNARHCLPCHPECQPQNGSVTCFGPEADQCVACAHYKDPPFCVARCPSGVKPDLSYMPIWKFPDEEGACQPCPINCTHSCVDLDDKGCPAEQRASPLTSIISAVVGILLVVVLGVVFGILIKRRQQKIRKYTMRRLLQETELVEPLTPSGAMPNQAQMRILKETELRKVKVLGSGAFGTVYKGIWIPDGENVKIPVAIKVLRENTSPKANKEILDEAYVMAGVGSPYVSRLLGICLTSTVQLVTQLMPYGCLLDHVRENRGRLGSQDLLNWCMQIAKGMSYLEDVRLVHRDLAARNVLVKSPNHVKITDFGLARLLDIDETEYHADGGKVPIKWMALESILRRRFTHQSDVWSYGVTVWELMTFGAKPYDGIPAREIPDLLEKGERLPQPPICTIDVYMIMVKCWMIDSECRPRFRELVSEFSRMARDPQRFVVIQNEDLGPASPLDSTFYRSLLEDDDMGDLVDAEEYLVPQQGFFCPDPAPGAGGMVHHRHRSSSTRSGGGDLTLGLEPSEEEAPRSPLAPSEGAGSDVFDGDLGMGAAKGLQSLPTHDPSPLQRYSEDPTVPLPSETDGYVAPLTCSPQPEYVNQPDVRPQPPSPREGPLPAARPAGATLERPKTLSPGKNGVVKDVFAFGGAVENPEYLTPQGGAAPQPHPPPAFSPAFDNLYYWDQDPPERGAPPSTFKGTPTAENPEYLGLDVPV

[11] = biological target: T1, Epidermal growth factor receptor; test: Inhibition of […]-induced EGFR phosphorylation in human A549 cells pretreated for 2 hrs followed by EGF stimulation by immune assay; assay type: cell-based
[12] = Toxicity in SCID mouse assessed as signs of clinical toxicity at 100 mg/kg, po administered for 7 consecutive days; assay type: organism-based; settings: in vivo
[13] = Inhibition of mouse EGFR A767_V769dup V769_D770insASV (ASV) mutant stably expressed in mouse BaF3 cells assessed as cell viability incubated for 3 days by Cell Titer-Glo assay; assay type: cell-based; settings: BaF3, 72 h
[14] = Inhibition of mouse EGFR N771_H773dup H773_V774insNPH […] (NPH) mutant stably expressed in mouse BaF3 cells assessed as cell viability incubated for 3 days by Cell Titer-Glo assay; assay type: cell-based; settings: BaF3, 72 h
[15] = biological target: Epidermal growth factor receptor (Homo sapiens, UniProt P04626+P00533+Q15303+P21860, L858R); test: Inhibition of mouse EGFR L858R mutant stably expressed in mouse BaF3 cells assessed as cell viability incubated for 3 days by Cell Titer-Glo assay; assay type: cell-based
[16] = AUClast in CD-1 rat at 10 mg/kg, po by LC/MS/MS analysis; assay type: ADME, organism-based; set-up: dose 10 mg/kg, route po; settings: in vivo
[17] = Inhibition of mouse EGFR del-T790M mutant stably expressed in mouse BaF3 cells assessed as cell viability incubated for 3 days by Cell Titer-Glo assay; assay type: cell-based; settings: BaF3, 72 h
[18] = biological target: T1, Epidermal growth factor receptor; test: Inhibition of human EGFR at 1 uM by hotspot assay relative to control
BaF3 [19] = test: In vivo antitumor activity against mouse BaF3 cells expressing EGFR exon 20 insertion (ex20ins) ASV implanted in SCID mouse assessed as tumor growth inhibition at 30 mg/kg, po administered for 7 consecutive days; assay type: functional; settings: BaF3, 168 h, time 7 day, read-out: TGI

T1 sequence (P00533 whole entry): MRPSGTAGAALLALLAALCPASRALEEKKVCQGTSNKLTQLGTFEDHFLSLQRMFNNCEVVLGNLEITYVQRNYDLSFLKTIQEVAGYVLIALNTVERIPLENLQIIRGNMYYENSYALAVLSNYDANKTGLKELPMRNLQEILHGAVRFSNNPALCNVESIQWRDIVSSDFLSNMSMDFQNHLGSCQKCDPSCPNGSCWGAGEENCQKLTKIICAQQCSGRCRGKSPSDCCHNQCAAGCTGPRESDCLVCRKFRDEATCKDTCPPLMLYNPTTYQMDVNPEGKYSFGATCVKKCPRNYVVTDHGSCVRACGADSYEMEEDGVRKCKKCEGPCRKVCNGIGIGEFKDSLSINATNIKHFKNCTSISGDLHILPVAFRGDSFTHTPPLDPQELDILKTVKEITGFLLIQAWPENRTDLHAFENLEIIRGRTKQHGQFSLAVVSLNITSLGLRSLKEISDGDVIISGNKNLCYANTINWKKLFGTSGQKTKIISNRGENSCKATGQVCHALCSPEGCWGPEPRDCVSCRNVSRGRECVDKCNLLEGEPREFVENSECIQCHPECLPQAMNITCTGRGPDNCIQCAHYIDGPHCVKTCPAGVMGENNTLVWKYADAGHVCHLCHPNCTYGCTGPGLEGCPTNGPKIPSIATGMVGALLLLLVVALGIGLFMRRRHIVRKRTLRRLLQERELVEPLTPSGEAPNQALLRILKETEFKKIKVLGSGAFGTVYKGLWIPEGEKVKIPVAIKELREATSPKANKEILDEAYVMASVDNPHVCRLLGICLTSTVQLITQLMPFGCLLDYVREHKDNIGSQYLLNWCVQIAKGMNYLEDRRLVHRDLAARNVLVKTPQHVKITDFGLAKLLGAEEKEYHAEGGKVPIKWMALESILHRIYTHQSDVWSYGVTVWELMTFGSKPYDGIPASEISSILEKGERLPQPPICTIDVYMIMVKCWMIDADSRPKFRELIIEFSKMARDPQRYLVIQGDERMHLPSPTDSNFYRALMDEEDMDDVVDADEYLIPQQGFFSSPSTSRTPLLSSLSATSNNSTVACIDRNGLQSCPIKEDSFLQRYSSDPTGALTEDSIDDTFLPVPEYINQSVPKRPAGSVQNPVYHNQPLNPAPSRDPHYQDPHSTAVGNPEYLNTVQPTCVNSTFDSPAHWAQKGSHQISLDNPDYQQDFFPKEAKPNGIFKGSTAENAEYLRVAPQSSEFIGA

IC50 [1]: 34.5 nM | inhibition [3]: > 81% | inhibition [4]: > 81% | inhibition [5]: > 81% | Cmax [6]: 143 ng/mL | Cmax [7]: 82 ng/mL | inhibition [9]: > 81% | inhibition [10]: > 97% | IC50 [11]: 31 nM | AUC(0-t) [16]: 1780 ng·h/mL | inhibition [18]: > 97%
SMILES: C=CC(=O)Nc1cc(Nc2ncc(C(=O)OC(C)C)c(-c3cn(C)c4ccccc34)n2)c(OC)cc1N(C)CCN(C)C [MOBOCERTINIB]
IC50 [2]: 4 nM | Activity (BaF3 [8]): -98% | Activity [12]: Non-Toxic | IC50 [13]: 11 nM | IC50 [14]: 18.1 nM | IC50 [15]: 3.3 nM | IC50 [17]: 6.3 nM | inhibition in vivo at 30 mg/kg (BaF3 [19]): 77%
